According to ChEMBL document CHEMBL5053552, “Design, Synthesis, and Antiviral activity of 1,2,3,4-Tetrahydropyrimidine derivatives acting as novel entry inhibitors to target at "Phe43 cavity" of HIV-1 gp120” (Bioorg Med Chem, 2021):
The source made the active and inactive calls. No cut-off for these calls is given here.

Legend:
[1] = system: Human immunodeficiency virus 1; experiment: Antiviral activity against HIV1 931N101 infected in human SupT1 cells assessed as inhibition of viral entry mesaured after 96 hrs by p24- ELISA assay; type: functional, organism-based; details: Human immunodeficiency virus 1, 931N101, SUP-T1, 96 h
[2] = Cytotoxicity against human SUP-T1 cells assessed as reduction in cell viability measured after 16 hrs by MTT assay; type: cell-based
[3] = system: SUP-T1; experiment: Inhibition of HIV1 gp120 interaction with CD4 in human SUP-T1 cells expressing CCR5, CXCR4 assessed as decrease in viral entry by fluorescent microscopic assay; type: cell-based; details: Human immunodeficiency virus 1
[4] = system: Human immunodeficiency virus 1; experiment: Antiviral activity against HIV1 931N101 infected in human SupT1 cells assessed as inhibition of viral entry at 2.2 uM mesaured after 96 hrs by p24- ELISA assay relative to control; type: functional; details: Human immunodeficiency virus 1, 931N101, SUP-T1

CCOC(=O)C1=C(C)NC(=S)NC1c1ccc(OC)cc1 (configuration not stated)
IC50 [1]: 4.5 µM
CC50 at 16 h [2]: 110 µM

CCOC(=O)C1=C(C)NC(=S)NC1c1ccc(O)cc1 (configuration not stated)
IC50 [1]: 4 µM
CC50 at 16 h [2]: 88.9 µM

CCOC(=O)C1=C(C)NC(=S)NC1c1ccccc1C (configuration not stated)
IC50 [1]: 5.2 µM
CC50 at 16 h [2]: 124 µM

CCOC(=O)C1=C(C)NC(=O)NC1c1cc(Br)ccc1O (configuration not stated)
IC50 [1]: 5.3 µM
CC50 at 16 h [2]: 138 µM

CCOC(=O)C1=C(C)NC(=S)NC1c1cccc(Cl)c1 (configuration not stated)
IC50 [1]: 3.5 µM
CC50 at 16 h [2]: 97.6 µM

CCOC(=O)C1=C(C)NC(=O)NC1c1ccccc1C (configuration not stated)
IC50 [1]: 9.5 µM
CC50 at 16 h [2]: 136 µM

CCOC(=O)C1=C(C)NC(=O)NC1c1ccc(O)cc1 (configuration not stated)
IC50 [1]: 6 µM
CC50 at 16 h [2]: 132 µM

CCOC(=O)C1=C(C)NC(=O)NC1c1ccc(O)c(OC)c1 (configuration not stated)
IC50 [1]: 8.5 µM
inhibition [3]: Active
CC50 at 16 h [2]: 141 µM

CCOC(=O)C1=C(C)NC(=O)NC1c1ccc(OC)cc1 (configuration not stated)
IC50 [1]: 6.2 µM
CC50 at 16 h [2]: 103 µM

CCOC(=O)C1=C(C)NC(=S)NC1c1cc(Br)ccc1O (configuration not stated)
IC50 [1]: 3.7 µM
CC50 at 16 h [2]: 83.4 µM

CCOC(=O)C1=C(C)NC(=S)NC1c1ccc(O)c(OC)c1 (configuration not stated)
IC50 [1]: 2.2 µM
inhibition at 2.2 µM [4]: 50%
inhibition [3]: Active
CC50 at 16 h [2]: 101 µM

CCOC(=O)C1=C(C)NC(=S)NC1c1ccc(Br)cc1 (configuration not stated)
IC50 [1]: 4.2 µM
CC50 at 16 h [2]: 136 µM
